Among the data in the METLIN SMRT retention time set (Domingo-Almenara et al. 2019) are RP-LC retention time values, retold here.

Each structure is given as a SMILES string.

This series in a line: gradient 5% acetonitrile 3 min, to 50% in 2 min, to 85% in 15 min, held 3 min, 100 µL/min. As to conditions: column: Zorbax Extend-C18 2.1 x 50 mm; eluents: water / acetonitrile, 0.1% formic acid. The gist of the method: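 The system's dead and dwell volumes were 40 μL and 900 μL, with a Zorbax Extend-C18 column (2.1 × 50 mm, 1.8 μm) run at 100 μL/min in water and acetonitrile containing 0.1% formic acid each. Pure standards were analyzed in mixtures of ~100 molecules by HPLC–quadrupole time-of-flight mass spectrometry in positive and negative ionization mode. Retention time was assigned from computationally picked, manually inspected adduct peaks.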
As for `O=C(C1CCN(c2cnc(N3CCCCC3)nc2)CC1)N1CCOCC1`, the RP-LC retention time was found to be 599 s.

`O=C(CCCc1nc2ccccc2s1)N1CCC(CCOc2ccccc2)C1` (stereo unspecified) showed an RP-LC retention time of 1050 s.

Consider `CS(=O)(=O)Nc1cccc(NC(=O)C2CCN(CC(=O)Nc3ccc(F)cc3)CC2)c1`, for which the RP-LC retention time turned out to be 564 s.

Molecule `Cn1ccc2c(cc(C(=O)NCc3cccc(Br)c3)n2C)c1=O` had an RP-LC retention time of 733 s.

`CCOC(=O)C1CCCN(C(=O)C2CCc3nc(N(CC)CC)ncc3C2)C1` (stereo unspecified) showed an RP-LC retention time of 620 s.

The molecule `Cc1ccc(-c2nc(N)n(C(=O)C3CC3)n2)cc1` returned an RP-LC retention time of 872 s.

In turn, `COCCNC(=O)c1ccc(-c2ccc(N3CCCCC3)nc2)cc1` yielded an RP-LC retention time of 603 s.

For `c1ccc(-c2noc(-c3ccc(N4CCN(C5CCCCC5)CC4)nc3)n2)cc1`, the RP-LC retention time was 772 s.

Molecule `O=C(NCCc1c[nH]c2ccc(Cl)cc12)c1sc2ncccc2c1-n1cccc1` yielded an RP-LC retention time of 1060 s.

On to `CC(C)n1nc(CNC(=O)c2cccs2)c2ccccc21`, for which the RP-LC retention time turned out to be 845 s.

`Cc1cc2c(=O)n(CC(=O)Nc3cccc(C(F)(F)F)c3)ccc2s1` registered an RP-LC retention time of 886 s.

In turn, `Cc1ccc2c(c1)N(S(C)(=O)=O)CCC(C(=O)Nc1ccc(Br)cc1)O2` (stereo unspecified) showed an RP-LC retention time of 1020 s.

Molecule `Cn1c(N2CCC(C(=O)NCc3ccccn3)CC2)cc(=O)n(C)c1=O` showed an RP-LC retention time of 566 s.

`CN(C)C(CNS(=O)(=O)c1ccc(Cl)cc1)c1ccccc1` (stereo unspecified) came in with an RP-LC retention time of 652 s.

In the case of `CCn1c(=O)c2cc(C(=O)NCc3cn[nH]c3C)nn2c2ccccc21`, the RP-LC retention time worked out at 781 s.

Molecule `COCCCNC(=O)C1CCC(=O)N(c2ccc(OC)cc2)C1c1ccc(OC)c(OC)c1` (stereo unspecified) yielded an RP-LC retention time of 612 s.

Molecule `CC(=O)N1CCC(C2CCN(C(=O)CN3CCCC3=O)C2)CC1` (stereo unspecified) yielded an RP-LC retention time of 580 s.

As to `O=C(NC1CCCC1)C1CCN(S(=O)(=O)c2cc(C(=O)N3CCCCCC3)cs2)CC1`, the RP-LC retention time was found to be 836 s.

As to `O=C(NCCc1csc2nc(-c3cccs3)nn12)c1c(F)cccc1Cl`, the RP-LC retention time was determined as 792 s.

As to `CCn1cc(S(=O)(=O)N2CCC(n3c(C)cnc3-c3ccccc3)CC2)cn1`, the RP-LC retention time amounted to 631 s.

Regarding `CCCNC(=O)C1Cc2cc(S(=O)(=O)N3CCCCCC3)ccc2N1C(C)=O` (stereo unspecified), the RP-LC retention time is 744 s.

`COc1cccc(N2CCN(c3ccnc(SCC(=O)Nc4ccc(OC)c(Cl)c4)n3)CC2)c1` registered an RP-LC retention time of 754 s.

Regarding `O=C(c1ccc2ncnc(N3CCCCC3)c2c1)N1CCCCC1`, the RP-LC retention time is 636 s.

In turn, `COc1ccc(CN2C=C(C(=O)OCc3cccc(OC)c3)C(C)=NS2(=O)=O)cc1` came in with an RP-LC retention time of 1100 s.

Regarding `CCOCc1nc(C2CCCN(C(=O)C3(c4ccccc4)CC3)C2)no1` (stereo unspecified), the RP-LC retention time was 873 s.

Consider `Cc1ccc(NC(=O)N2CCC(C(C)C(=O)Nc3ccc(Cl)cc3)CC2)cc1` (stereo unspecified), for which the RP-LC retention time is 951 s.

As for `CCOC(=O)c1c(C)oc2nc(C)nc(Nc3ccc(OCC)cc3)c12`, the RP-LC retention time was 1360 s.

Take `Cc1ccc(-c2nnc(-c3nc(NCCCN4CCCC4=O)c4ccccc4n3)o2)cc1`: the RP-LC retention time was found to be 807 s.

Molecule `O=C(NCCCN1CCCCCC1)c1ccc2c(c1)NC(=O)C1CCCCN21` (stereo unspecified) registered an RP-LC retention time of 609 s.

Turning to `COC(=O)c1sccc1S(=O)(=O)N1CCN(c2ccccn2)CC1`, the RP-LC retention time worked out at 624 s.

Turning to `Cc1c(CNCc2ccco2)c(C(=O)O)c(C)n1Cc1ccccc1Cl`, the RP-LC retention time came out at 720 s.

In turn, `Cc1ccc(NC(=O)Cn2c(N)nc(C)cc2=O)c(C)c1` had an RP-LC retention time of 617 s.

The molecule `CCc1nnc2ccc(NC(=O)Nc3ccccc3C)cn12` came in with an RP-LC retention time of 691 s.

Molecule `CCOC(=O)Cc1c(C)c2cc(C(=O)c3ccccc3)c(O)cc2oc1=O` came in with an RP-LC retention time of 768 s.

The molecule `CC1Oc2ccc(-c3csc(NC(=O)c4ccncc4)n3)cc2N(C)C1=O` (stereo unspecified) returned an RP-LC retention time of 766 s.

In turn, `Cc1ccc(NC(=O)c2cccn2Cc2noc(C3CC3)n2)cc1F` had an RP-LC retention time of 1010 s.

As to `CC1CCN(S(=O)(=O)c2nn(C)cc2C(=O)NCCc2cccs2)CC1`, the RP-LC retention time turned out to be 952 s.

Consider `CC(=O)N1CCCc2cc(S(=O)(=O)N3CCC(C(=O)NCc4ccccn4)CC3)ccc21`, for which the RP-LC retention time is 607 s.

Take `O=C(Cn1ncc2c(N3CCN(c4ccccn4)CC3)ncnc21)Nc1ccc(Br)cc1`: the RP-LC retention time was 652 s.

As for `O=C(Nc1ccccc1)C1CCc2sc(C(=O)N3CCOCC3)cc2C1` (stereo unspecified), the RP-LC retention time is 708 s.

For the molecule `O=C(Cc1ccccc1)NCc1nc(-c2cccc(-c3csc(C4CC4)n3)c2)no1`, the RP-LC retention time amounted to 1070 s.

`CN1c2cc(C(=O)NCCCc3ccccc3)ccc2C(=O)N2CCCCC21` (stereo unspecified) had an RP-LC retention time of 885 s.

`Cc1ccc(S(=O)(=O)N2CCN(CCc3cn(C)c4ncccc34)CC2)cc1C` gave an RP-LC retention time of 656 s.

As for `COc1cccc(CC(=O)NC2CCN(c3cc(-c4cccs4)[nH]n3)C2)c1` (stereo unspecified), the RP-LC retention time is 658 s.

In the case of `CN1CCN(Cc2ccc(C(=O)NCCC3=CCCCC3)cc2)C(=O)C1=O`, the RP-LC retention time stood at 698 s.

In turn, `COCc1cn(C2CN(C(=O)c3sc(C)nc3C)C2)nn1` gave an RP-LC retention time of 589 s.

In turn, `Cc1ccc(-c2cc3n(n2)CCCN(C(=O)c2ccoc2)C3)cc1` returned an RP-LC retention time of 810 s.

As for `Cc1ccccc1S(=O)(=O)N1CCCC(CCC(=O)NCC2CCCCC2)C1` (stereo unspecified), the RP-LC retention time stood at 580 s.

`Cc1oc(-c2cccs2)nc1COc1cc(C)c2c(C)nn(C)c2n1` displayed an RP-LC retention time of 1060 s.

`CC(C)NC(=O)N1CCCCCC1c1nc(C2CC2)no1` (stereo unspecified) registered an RP-LC retention time of 802 s.

With `CC(C)Cn1c(=O)c(C(=O)NCc2cccnc2)nc2cccnc21`, the RP-LC retention time was determined as 613 s.

`Cc1n[nH]c(C)c1CCC(=O)N1CCCn2ccnc2C1C1CCCC1` (stereo unspecified) displayed an RP-LC retention time of 559 s.

`COc1ccc2oc(-c3csc(NC(=O)c4ccc(N5C(=O)CCC5=O)cc4)n3)cc2c1` gave an RP-LC retention time of 884 s.

As to `CCNC(=O)N1CC=C(C(=O)Nc2ccccc2)CC1`, the RP-LC retention time worked out at 658 s.

`O=C(Nc1cnn(-c2ncc(N3CCSCC3)cn2)c1)NC1CCCC1` showed an RP-LC retention time of 848 s.

In turn, `CCn1cnc2cc(CNC(=O)c3ccsc3)ccc21` showed an RP-LC retention time of 572 s.

For the molecule `Cc1c(Cl)cccc1NC(=O)N1CCc2nc[nH]c2C1`, the RP-LC retention time amounted to 592 s.

Molecule `CCc1cccc(NS(=O)(=O)c2ccc(-c3nnc(C4CCC4)o3)o2)c1` had an RP-LC retention time of 1000 s.

The molecule `CCN1C(=O)c2cc(S(=O)(=O)Nc3ccc(F)cc3C)ccc2Oc2cccnc21` gave an RP-LC retention time of 1010 s.

The molecule `CCS(=O)(=O)Nc1ccc(C2(C(=O)NCc3cccc(F)c3)CCCCC2)cc1` came in with an RP-LC retention time of 933 s.

Molecule `CCOc1ccccc1C(=O)N1CCC(C(=O)NCC(F)(F)F)CC1` gave an RP-LC retention time of 665 s.

Molecule `CCN1CCN(Cc2ccc(NC(=O)c3ccc(C)c(NC(=O)c4cncc(-c5cccs5)c4)c3)cc2C(F)(F)F)CC1` registered an RP-LC retention time of 844 s.

The molecule `Cc1ccc(CNC(=O)c2nsc(C(=O)N3CCN(c4ccccn4)CC3)c2N)cc1` displayed an RP-LC retention time of 681 s.

Turning to `Cc1cc(-c2nnc(-c3ccco3)o2)c(C)n1CC(=O)NCc1ccc(Cl)cc1`, the RP-LC retention time was 637 s.

Take `COCCN1C(=O)c2ccccc2C(C(=O)Nc2nc(C)c(C)s2)C12CCCC2` (stereo unspecified): the RP-LC retention time came to 842 s.

Regarding `CCc1ccc(CNC(=O)C2CCN(c3cc(Oc4ccc(CC)cc4)ncn3)CC2)cc1`, the RP-LC retention time was found to be 1120 s.

As for `CC(C)(C)NC(=O)N1CCC(CNC(=O)C(=O)NCCC2=CCCCC2)CC1`, the RP-LC retention time was determined as 818 s.

The molecule `CCOc1ccc(-c2nc(NC(=O)Cc3csc(COc4cc(C)ccc4C)n3)sc2C)cc1` showed an RP-LC retention time of 1350 s.

Consider `Cc1cc2[nH]c(C(=O)Nc3ccc(F)cc3F)c(CN3CCOCC3)c2s1`, for which the RP-LC retention time turned out to be 710 s.

The molecule `O=C(NCC1COc2ccccc2O1)C(=O)N1CCCCC1` (stereo unspecified) returned an RP-LC retention time of 757 s.

With `CCc1ccc(NC(=O)Cn2nc3cc(C)nc(Nc4ccc(C)c(F)c4)n3c2=O)cc1`, the RP-LC retention time turned out to be 1190 s.

As for `COc1ccc(C2Cn3nnc(C(=O)N4CCC(C(=O)NC5CC5)CC4)c3CO2)cc1` (stereo unspecified), the RP-LC retention time stood at 699 s.

`O=C(NCc1ccccn1)C1CCCN(c2ccc(Sc3ccc(Br)cc3)nn2)C1` (stereo unspecified) registered an RP-LC retention time of 702 s.

With `Cc1nc(-c2cccs2)c(CCC(=O)Nc2ccccc2C(F)(F)F)s1`, the RP-LC retention time is 923 s.

On to `O=C(CN1CCN(Cc2ccccc2F)C1=O)N1CCN(c2ccccc2)CC1`, for which the RP-LC retention time came out at 778 s.

On to `CCOC(=O)C1CCN(S(=O)(=O)c2cc3n(c2)CCCNC3=O)CC1`, for which the RP-LC retention time is 652 s.

As for `CCCCCCNC(=O)C1CC(=O)N(CCc2c[nH]c3ccc(C)cc23)C1` (stereo unspecified), the RP-LC retention time amounted to 864 s.

The molecule `CCN1C(=O)c2cccnc2Sc2cc(NC(=O)c3ccccc3)ccc21` registered an RP-LC retention time of 812 s.

Molecule `Cc1ccc(C)n1-c1nnc(N2CCC(C(=O)N3CCN(c4ccccn4)CC3)CC2)s1` displayed an RP-LC retention time of 634 s.

`CCC1CCCCN1S(=O)(=O)c1cc(-c2nc(C)c(C)s2)sc1C` (stereo unspecified): the RP-LC retention time was 1320 s.

In the case of `CCOC(=O)c1c(C)[nH]c(CCC(=O)NCCN2CCOCC2)c1C`, the RP-LC retention time was 597 s.
